What was measured:
Type in all cases: biochemical
[1] = target: Pim-3 (Homo sapiens (Human), UniProt Q86V86); assay: Pim-3 kinase assay; conditions: 1 mM ATP; read-out: PIM3 IC50
Protocol: (§1) Pim-1 and Pim-3 kinase assays—20 μL reactions were run in white 384 well polystyrene plates dotted with 0.8 μL compound/DMSO in the assay buffer (50 mM Tris, pH 7.5, 0.01% Tween-20, 5 mM mgCl2, 0.01% BSA, 5 mM DTT), containing 0.05 μM Biotin-labeled BAD peptide substrate (AnaSpec 62269), 1 mM ATP, and 2.5 pM (Pim-1, Invitrogen PV3503) or 1.25 pM (Pim-3, Millipore 14-738) enzyme for 1 h at 25° C. Reactions were stopped by addition of 10 μL STOP Buffer (150 mM Tris, pH=7.5, 150 mM NaCl, 75 mM EDTA, 0.01% Tween-20, 0.3% BSA,) supplemented with Phospho-Bad (Ser112) Antibody (Cell Signaling 9291) diluted 666-fold, and Streptavidin donor beads (PerkinElmer 6760002) along with Protein-A acceptor beads (PerkinElmer 6760137) at […]. Supplementation of the STOP buffer with beads and stopping the reactions were done under reduced light. Prior to the stopping reactions STOP buffer with beads was preincubated for 1 h in the dark at room temperature. After stopping the reactions, plates were incubated for 1 h in the dark at room temperature before reading on a PHERAstar FS plate reader (BMG Labtech) under reduced light.

[2] = target: Pim-2 (Homo sapiens (Human), UniProt Q9P1W9); assay: Pim-2 kinase assay; conditions: 1 mM ATP; read-out: PIM2 IC50
Protocol: Pim-2 kinase assay—20 μL reactions were run in white 384 well polystyrene plates dotted with 0.8 μL compound/DMSO in the assay buffer (50 mM Tris, pH 7.5, 0.01% Tween-20, 5 mM mgCl2, 0.01% BSA, 5 mM DTT), containing 0.05 μM Fluorescein-labeled CREBtide peptide substrate (Invitrogen PV3508), 1 mM ATP, and 1 nM enzyme (Invitrogen PV3649) for 2 h at 25° C. Reactions were stopped by addition of 10 μL TR-FRET Dilution Buffer (Invitrogen PV3574) with 30 mM EDTA and 1.5 nM LanthaScreen Tb-CREB pSer133 antibody (Invitrogen PV3566). After 30 min. incubation at room temperature, plates were read on a PHERAstar FS plate reader (BMG Labtech).

[3] = target: Pim-1 (Homo sapiens (Human), UniProt P11309); assay: Pim-1 kinase assay; conditions: 1 mM ATP; read-out: PIM1 IC50
Protocol: as §1

Sequence of Pim-1 (P11309 whole entry): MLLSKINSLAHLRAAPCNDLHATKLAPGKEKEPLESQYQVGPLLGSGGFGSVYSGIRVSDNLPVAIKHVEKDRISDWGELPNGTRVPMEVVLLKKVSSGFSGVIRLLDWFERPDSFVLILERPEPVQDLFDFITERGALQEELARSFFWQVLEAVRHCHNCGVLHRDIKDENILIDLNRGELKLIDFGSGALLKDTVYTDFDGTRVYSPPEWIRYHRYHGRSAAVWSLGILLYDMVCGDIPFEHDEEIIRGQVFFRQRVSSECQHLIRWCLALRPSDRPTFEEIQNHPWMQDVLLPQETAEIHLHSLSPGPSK
Sequence of Pim-2 (Q9P1W9 whole entry): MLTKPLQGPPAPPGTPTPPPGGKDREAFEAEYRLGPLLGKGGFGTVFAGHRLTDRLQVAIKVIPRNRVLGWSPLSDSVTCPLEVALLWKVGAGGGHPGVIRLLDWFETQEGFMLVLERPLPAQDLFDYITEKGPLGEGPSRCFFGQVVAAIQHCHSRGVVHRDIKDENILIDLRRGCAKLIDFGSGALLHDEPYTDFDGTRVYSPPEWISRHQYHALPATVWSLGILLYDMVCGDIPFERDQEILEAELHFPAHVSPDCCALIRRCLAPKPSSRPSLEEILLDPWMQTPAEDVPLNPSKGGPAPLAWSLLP

Structure (SMILES)	IC50 [1] [µM]	IC50 [2] [µM]	IC50 [3] [µM]
Cc1nn(C)cc1-c1cnc2c(C(=O)Nc3cnccc3[C@@H]3C[C@H](C)C[C@H](N)C3)ccc(F)c2c1 [Example 63, N-(4-((1R,3S,5S)-3-Amino-5-methylcyclohexyl)pyridin-3-yl)-3-(1,3-dimethyl-1H-pyrazol-4-yl)-5-fluoroquinoline-8-carboxamide]	≤ 0.01	0.1 to 1	≤ 0.01
C[C@@H]1C[C@H](N)C[C@H](c2ccncc2NC(=O)c2ccc(F)c3cc(N4CCOC[C@H]4C)cnc23)C1 [Example 32, N-(4-((1R,3S,5S)-3-Amino-5-methylcyclohexyl)pyridin-3-yl)-5-fluoro-3-((R)-3-methylmorpholino)quinoline-8-carboxamide]	≤ 0.01	≤ 0.1	≤ 0.01
CCCN(C)c1cnc2c(C(=O)Nc3cnccc3[C@@H]3C[C@H](C)C[C@H](N)C3)ccc(F)c2c1 [Example 55, N-(4-((1R,3S,5S)-3-Amino-5-methylcyclohexyl)pyridin-3-yl)-5-fluoro-3-(methyl(propyl)amino)quinoline-8-carboxamide]	≤ 0.01	≤ 0.1	≤ 0.01
C[C@@H]1C[C@H](N)C[C@H](c2ccncc2NC(=O)c2ccc(F)c3cc(N4CCN(C)C(=O)[C@@H]4C)cnc23)C1 [Example 112, N-(4-((1R,3S,5S)-3-Amino-5-methylcyclohexyl)pyridin-3-yl)-3-((5)-2,4-dimethyl-3-oxopiperazin-1-yl)-5-fluoroquinoline-8-carboxamide]	≤ 0.01	≤ 0.1	≤ 0.01
C[C@@H]1C[C@H](N)C[C@H](c2ccncc2NC(=O)c2ccc(F)c3cc(N4C[C@H]5C[C@@H]4CO5)cnc23)C1 [Example 80, N-(4-((1R,3S,5S)-3-Amino-5-methylcyclohexyl)pyridin-3-yl)-3-((1R,4R)-2-oxa-5-azabicyclo[2.2.1]heptan-5-yl)-5-fluoroquinoline-8-carboxamide]	≤ 0.01	≤ 0.1	≤ 0.01
CC1CN(c2cnc3c(C(=O)Nc4cnccc4[C@@H]4C[C@H](C)C[C@H](N)C4)ccc(F)c3c2)C1 [Example 111, N-(4-((1R,3S,5S)-3-Amino-5-methylcyclohexyl)pyridin-3-yl)-5-fluoro-3-(3-methylazetidin-1-yl)quinoline-8-carboxamide]	≤ 0.01	≤ 0.1	≤ 0.01
COC1CCCN(c2cnc3c(C(=O)Nc4cnccc4[C@@H]4C[C@H](C)C[C@H](N)C4)ccc(F)c3c2)C1 (stereo in doubt) [Example 12, N-{4-[(1R,3S,5S)-3-Amino-5-methylcyclohexyl]pyridin-3-yl}-5-fluoro-3-[(3S)-3-methoxypiperidin-1-yl]quinoline-8-carboxamide]	≤ 0.01	0.1 to 1	≤ 0.01
C[C@@H]1C[C@H](N)C[C@H](c2ccncc2NC(=O)c2ccc(F)c3cc(N4CCN(C)C(=O)C4)cnc23)C1 [Example 75, N-(4-((1R,3S,5S)-3-Amino-5-methylcyclohexyl)pyridin-3-yl)-5-fluoro-3-(4-methyl-3-oxopiperazin-1-yl)quinoline-8-carboxamide]	≤ 0.01	≤ 0.1	≤ 0.01
CO[C@@H]1CCN(c2cnc3c(C(=O)Nc4cnccc4[C@@H]4C[C@H](C)C[C@H](N)C4)ccc(F)c3c2)C[C@H]1F [Example 162, N-(4-((1R,3S,5S)-3-Amino-5-methylcyclohexyl)pyridin-3-yl)-5-fluoro-3-((3R,4R)-3-fluoro-4-methoxypiperidin-1-yl)quinoline-8-carboxamide]	≤ 0.01	≤ 0.1	≤ 0.01
COc1ccc(N(C)c2cnc3c(C(=O)Nc4cnccc4[C@@H]4C[C@H](C)C[C@H](N)C4)ccc(F)c3c2)cc1 [Example 148, N-(4-((1R,3S,5S)-3-Amino-5-methylcyclohexyl)pyridin-3-yl)-5-fluoro-3-((4-methoxyphenyl)(methyl)amino)quinoline-8-carboxamide]	≤ 0.01	≤ 0.1	≤ 0.01
C[C@@H]1C[C@H](N)C[C@H](c2ccncc2NC(=O)c2ccc(F)c3cc(N4CCn5cnnc5C4)cnc23)C1 [Example 134, N-(4-((1R,3S,5S)-3-Amino-5-methylcyclohexyl)pyridin-3-yl)-3-(5,6-dihydro-[1,2,4]triazolo[4,3-a]pyrazin-7(8H)-yl)-5-fluoroquinoline-8-carboxamide]	≤ 0.01	0.1 to 1	≤ 0.01
C[C@@H]1C[C@H](N)C[C@H](c2ccncc2NC(=O)c2ccc(F)c3cc(-c4c(F)cccc4C#N)cnc23)C1 [Example 15, N-{4-[(1R,3S,5S)-3-Amino-5-methylcyclohexyl]pyridin-3-yl}-3-(2-cyano-6-fluorophenyl)-5-fluoroquinoline-8-carboxamide]	≤ 0.01	≤ 0.1	≤ 0.01
CC1CCCCN1c1cc2c(F)ccc(C(=O)Nc3cnccc3[C@@H]3C[C@H](C)C[C@H](N)C3)c2nn1 (stereo partly drawn) [Example 93, N-{4-[(1R,3S,5S)-3-Amino-5-methylcyclohexyl]pyridin-3-yl}-5-fluoro-3-(2-methylpiperidin-1-yl)cinnoline-8-carboxamide]	≤ 0.01	≤ 0.1	≤ 0.01
C[C@@H]1C[C@H](N)C[C@H](c2ccncc2NC(=O)c2ccc(F)c3cc(N4CCCCC4C(F)F)cnc23)C1 (stereo partly drawn) [Example 58, N-(4-((1R,3S,5S)-3-Amino-5-methylcyclohexyl)pyridin-3-yl)-3-(2-(difluoromethyl)piperidin-1-yl)-5-fluoroquinoline-8-carboxamide]	≤ 0.01	≤ 0.1	≤ 0.01
COCCN(C)c1cnc2c(C(=O)Nc3cnccc3[C@@H]3C[C@H](C)C[C@H](N)C3)ccc(F)c2c1 [Example 51, N-(4-((1R,3S,5S)-3-Amino-5-methylcyclohexyl)pyridin-3-yl)-5-fluoro-3-((2-methoxyethyl)(methyl)amino)quinoline-8-carboxamide]	≤ 0.01	0.1 to 1	≤ 0.01
Cc1ccc(N(C)c2cnc3c(C(=O)Nc4cnccc4[C@@H]4C[C@H](C)C[C@H](N)C4)ccc(F)c3c2)c(C)n1 [Example 141, N-(4-((1R,3S,5S)-3-Amino-5-methylcyclohexyl)pyridin-3-yl)-3-((2,6-dimethylpyridin-3-yl)(methyl)amino)-5-fluoroquinoline-8-carboxamide]	≤ 0.01	≤ 0.1	≤ 0.01
C[C@@H]1C[C@H](N)C[C@H](c2ccncc2NC(=O)c2cccc3cc(N4CCCCC4C(F)F)cnc23)C1 (stereo partly drawn) [Example 71, N-(4-((1R,3S,5S)-3-Amino-5-methylcyclohexyl)pyridin-3-yl)-3-(2-(difluoromethyl)piperidin-1-yl)quinoline-8-carboxamide]	≤ 0.01	0.1 to 1	≤ 0.01
CC1CCC(C)N1c1cnc2c(C(=O)Nc3cnccc3[C@@H]3C[C@H](C)C[C@H](N)C3)ccc(F)c2c1 (stereo partly drawn) [Example 36, N-(4-((1R,3S,5S)-3-Amino-5-methylcyclohexyl)pyridin-3-yl)-3-(2,5-dimethylpyrrolidin-1-yl)-5-fluoroquinoline-8-carboxamide]	0.01 to 0.05	0.1 to 1	≤ 0.01
C[C@@H]1C[C@H](N)C[C@H](c2ccncc2NC(=O)c2ccc(F)c3cc(N4CCSCC4)cnc23)C1 [Example 73, N-(4-((1R,3S,5S)-3-Amino-5-methylcyclohexyl)pyridin-3-yl)-5-fluoro-3-thiomorpholinoquinoline-8-carboxamide]	≤ 0.01	≤ 0.1	≤ 0.01
COC(=O)N1C[C@H]2C[C@@H]1CN2c1cnc2c(C(=O)Nc3cnccc3[C@@H]3C[C@H](C)C[C@H](N)C3)ccc(F)c2c1 [Example 90, (1R,4R)-Methyl 5-(8-(4-((1R,3S,5S)-3-amino-5-methylcyclohexyl)pyridin-3-ylcarbamoyl)-5-fluoroquinolin-3-yl)-2,5-diazabicyclo[2.2.1]heptane-2-carboxylate]	≤ 0.01	≤ 0.1	≤ 0.01
C[C@@H]1C[C@H](N)C[C@H](c2ccncc2NC(=O)c2ccc(F)c3cc(N4C5CCC4CC(O)C5)cnc23)C1 (stereo partly drawn) [Example 98, N-(4-((1R,3S,5S)-3-Amino-5-methylcyclohexyl)pyridin-3-yl)-5-fluoro-3-(3-hydroxy-8-azabicyclo[3.2.1]octan-8-yl)quinoline-8-carboxamide]	≤ 0.01	≤ 0.1	≤ 0.01

— patent publication US9920032B2, “Heterocyclic compounds useful as pim kinase inhibitors” (Incyte Corporation, priority 2015, dated 2018)
